This series concerns zebrafish embryos and larvae. Conditions: for Maximum-tolerated concentration (MTC): highest concentration with no phenotypic abnormalities, followed to 9 dpf; for Phenotypic effects above MTC after 24 hours (average penetrance at least 50%): at the concentration in parentheses; for MTC / tolerated concentration: over all or most developmental stages analyzed, 24-hour exposure. The procedure: Zebrafish embryos of the AB wild-type strain (originally obtained from the Zebrafish International Resource Center, Eugene, Oregon, USA) were raised at 28°C. Zebrafish husbandry, embryo collection, and embryo and larva maintenance were performed as described, [21]. Toxicity assays were standardly performed in 24-well microtiter plates (wrapped with Parafilm to limit solvent evaporation) using 10 embryos per well in 1 ml of 0.3× Danieau's medium (17 mM NaCl, 2 mM KCl, 0.12 mM MgSO4, 1.8 mM Ca(NO3)2 and 1.5 mM HEPES, pH 7.6). Each experiment was repeated 3 times for a total of 30 embryos or larvae analyzed per solvent per developmental staged tested. Data were only recorded for experiments in which the percentage of normal embryos or larvae in the control group was at least 90%. […] In determining the maximum tolerated concentration (MTC) for each solvent and carrier, all post-exposure embryos and larvae were allowed to develop in larva medium to 9 dpf, so as to detect any deleterious effects appearing after this 24-hour window. Solvents and carriers were obtained from the following suppliers: acetone (Chemlab, Zedelgem, Belgium), acetonitrile (Acros Organics, Geel, Belgium), albumin (BSA, Sigma-Aldrich, Bornem, Belgium), butanone (Riedel-de Haën, Seelze, Germany), cyclodextrin (2- hydroxypropyl-beta-cyclodextrin, Sigma-Aldrich), dimethyl formamide (Acros), DMSO (Agros), ethanol (Fisher Scientific, Doornik, Belgium), glycerol (Acros), isopropanol (Chemlab), methanol (Chemlab), polyethylene glycol-400 (Fluka, Bornem, Belgium), propylene glycol (Certa, Eigenbrakel, Belgium), solketal (Merck, Overijse, Belgium). Statistical analyses were done using chi-square in Microsoft Excel.
Twelve solvents and 2 carriers – chosen based solely on their potential utility for the solubilization and delivery of a structurally diverse range of small molecules – were analyzed for their effects on zebrafish embryos and larvae. The solvents included acetone, acetonitrile, butanone, dimethyl formamide, DMSO, ethanol, glycerol, isopropanol, methanol, polyethylene glycol (PEG-400), propylene glycol, and solketal, and the carriers included albumin (BSA) and cyclodextrin (2-hydroxypropyl-beta-cyclodextrin, or HPBCD). […] For this initial study, the effects of a 24-hour exposure to each solvent and carrier was analyzed using embryos and larvae at the following developmental stages: 2–4 cell, 4 hours-post fertilization (hpf), and 1, 2, 3, 4, and 7 days post-fertilization (dpf).

Where [1] appears, read: exposure for 24 hours beginning at 1 dpf.
Setting [2] is: exposure for 24 hours beginning at 2 dpf.
The mark [3] stands for this setting: exposure for 24 hours beginning at 2–4 cell stage.
[4] abbreviates: exposure for 24 hours beginning at 3 dpf.
[5] abbreviates: exposure for 24 hours beginning at 4 dpf.
[6] abbreviates: exposure for 24 hours beginning at 4 hpf.
Where [7] appears, read: exposure for 24 hours beginning at 5 dpf.
Setting [8] is: exposure for 24 hours beginning at 7 dpf.
The mark [9] stands for this setting: 24 hours exposure from 2–4 cell stage.

Structures are written as SMILES. Like-named read-outs stand apart in the source and are kept apart here.

Consider `CCC(C)=O` [Butanone (MEK), 2-butanone], for which the “Lowest concentration at which an average penetrance of at least 50% was observed for the phenotypic effects” value runs as follows: (24 hours exposure from 1 dpf) 2%; (24 hours exposure from 2 dpf) 2.5%; (24 hours exposure from 3 dpf) 2%. The “Maximum-tolerated concentration (MTC)” value is recorded as 1% under setting [1]; 1.5% under setting [2]; 0.5% under setting [3]; not above 0.5% (exposure for 24 hours beginning at 2–4 cell stage, listed as butanone); 1.5% under setting [4]; 1.5% under setting [5]. The “Maximum-tolerated concentration (MTC)” value is on record as 1% under setting [6]; less than 0.5% under setting [7]; not above 0.5% (exposure for 24 hours beginning at 5 dpf, listed as butanone); 0.5% under setting [8]; not above 0.5% (exposure for 24 hours beginning at 7 dpf, listed as butanone). In addition, the “Phenotypic effects above MTC after 24 hours (average penetrance at least 50%)” value is on record as “IC MC PE” (exposure from 1 dpf), “DD HJ” (exposure from 2 dpf) and “HJ SB” (exposure from 3 dpf).
For `CC(O)COC[C@H]1O[C@@H]2O[C@H]3[C@H](O)[C@@H](O)[C@@H](O[C@H]4[C@H](O)[C@@H](O)[C@@H](O[C@H]5[C@H](O)[C@@H](O)[C@@H](O[C@H]6[C@H](O)[C@@H](O)[C@@H](O[C@H]7[C@H](O)[C@@H](O)[C@@H](O[C@H]8[C@H](O)[C@@H](O)[C@@H](O[C@H]1[C@H](O)[C@H]2O)O[C@@H]8COCC(C)O)O[C@@H]7COCC(C)O)O[C@@H]6COCC(C)O)O[C@@H]5COCC(C)O)O[C@@H]4COCC(C)O)O[C@@H]3COCC(C)O` (stereo partly drawn) [Cyclodextrin (HPBCD), 2-hydroxypropyl-beta-cyclodextrin], the “MTC / tolerated concentration” value is recorded as 1%. For the same molecule, the “Maximum-tolerated concentration (MTC)” value under setting [1] amounted to 1%. The “Maximum-tolerated concentration (MTC)” value under setting [2] is 1.5%. Further, the “Maximum-tolerated concentration (MTC)” value under setting [3] is on record as 1%. The “Maximum-tolerated concentration (MTC)” value under setting [4] is given as 1.5%. Further, under setting [5], the “Maximum-tolerated concentration (MTC)” value is 1%. For the same molecule, the “Maximum-tolerated concentration (MTC)” value under setting [6] is given as 0.5%. The “Maximum-tolerated concentration (MTC)” value under setting [7] was found to be 1.5%. Besides, the “Maximum-tolerated concentration (MTC)” value under setting [8] was 1%.
For `CN(C)C=O` [Dimethyl formamide (DMF), Dimethyl formamide], the “MTC / tolerated concentration” value was not above 0.5%. The “Lowest concentration at which an average penetrance of at least 50% was observed for the phenotypic effects” value (24 hours exposure from 1 dpf) is reported as 0.5%. Also, under “24 hours exposure from 2 dpf”, the “Lowest concentration at which an average penetrance of at least 50% was observed for the phenotypic effects” value was found to be 1%. In addition, the “Lowest concentration at which an average penetrance of at least 50% was observed for the phenotypic effects” value under setting [9] was found to be 1%. Further, the “Lowest concentration at which an average penetrance of at least 50% was observed for the phenotypic effects” value (24 hours exposure from 3 dpf) came out at 1%. Under “24 hours exposure from 4 dpf”, the “Lowest concentration at which an average penetrance of at least 50% was observed for the phenotypic effects” value is listed as 1%. Besides, the “Lowest concentration at which an average penetrance of at least 50% was observed for the phenotypic effects” value (24 hours exposure from 4 hpf) is given as 1%. For the setting “24 hours exposure from 5 dpf”, the “Lowest concentration at which an average penetrance of at least 50% was observed for the phenotypic effects” value turned out to be 1.5%. For the same molecule, the “Lowest concentration at which an average penetrance of at least 50% was observed for the phenotypic effects” value (24 hours exposure from 7 dpf) was 0.5%. The “Maximum-tolerated concentration (MTC)” value under setting [1] is reported as less than 0.5%. In addition, the “Maximum-tolerated concentration (MTC)” value under setting [2] turned out to be 0.5%. In addition, the “Maximum-tolerated concentration (MTC)” value under setting [3] was found to be 0.5%. In addition, the “Maximum-tolerated concentration (MTC)” value under setting [4] was found to be 0.5%. Further, the “Maximum-tolerated concentration (MTC)” value under setting [5] is 0.5%. Moreover, under setting [6], the “Maximum-tolerated concentration (MTC)” value is reported as less than 0.5%. Under setting [7], the “Maximum-tolerated concentration (MTC)” value worked out at 0.5%. In addition, the “Maximum-tolerated concentration (MTC)” value under setting [8] was less than 0.5%. In addition, the “Phenotypic effects above MTC after 24 hours (average penetrance at least 50%)” value (exposure from 1 dpf) is “AP BH IC IM NB PE”. Besides, under “exposure from 2 dpf”, the “Phenotypic effects above MTC after 24 hours (average penetrance at least 50%)” value is on record as “AP HJ PE”. For the same molecule, for the setting “exposure from 3 dpf”, the “Phenotypic effects above MTC after 24 hours (average penetrance at least 50%)” value is on record as “HJ IC PE”. Further, under “exposure from 4 dpf”, the “Phenotypic effects above MTC after 24 hours (average penetrance at least 50%)” value is given as “AP LP”. Besides, the “Phenotypic effects above MTC after 24 hours (average penetrance at least 50%)” value (exposure from 4 hpf) is listed as “AP BC BS CF PE”. The “Phenotypic effects above MTC after 24 hours (average penetrance at least 50%)” value (exposure from 5 dpf) was “IM LP PE SB”. Besides, the “Phenotypic effects above MTC after 24 hours (average penetrance at least 50%)” value (exposure from 7 dpf) is listed as “HO LP”.
For `CCO` [Ethanol, ethanol], the “Lowest concentration at which an average penetrance of at least 50% was observed for the phenotypic effects” value worked out at 2% (24 hours exposure from 1 dpf); 2% (24 hours exposure from 2 dpf); 1.5% under setting [9]; 2% (24 hours exposure from 3 dpf); 2% (24 hours exposure from 4 dpf); 1.5% (24 hours exposure from 4 hpf). In addition, the “Lowest concentration at which an average penetrance of at least 50% was observed for the phenotypic effects” value is listed as 2.5% (24 hours exposure from 5 dpf) and 1.5% (24 hours exposure from 7 dpf). For the same molecule, the “Maximum-tolerated concentration (MTC)” value under setting [1] was found to be 1%; the “Maximum-tolerated concentration (MTC)” value under setting [2] stood at 1.5%; the “Maximum-tolerated concentration (MTC)” value under setting [3] came out at 1%; the “Maximum-tolerated concentration (MTC)” value under setting [4] is 1%; the “Maximum-tolerated concentration (MTC)” value under setting [5] stood at 1.5%; the “Maximum-tolerated concentration (MTC)” value under setting [6] turned out to be 0.5%. The “Maximum-tolerated concentration (MTC)” value is 0.5% under setting [7] and 1% under setting [8].
Regarding `OCC(O)CO` [Glycerol], the “Lowest concentration at which an average penetrance of at least 50% was observed for the phenotypic effects” value was found to be 2% (24 hours exposure from 1 dpf); 2% (24 hours exposure from 2 dpf); 2.5% under setting [9]; 2% (24 hours exposure from 3 dpf); 2% (24 hours exposure from 4 hpf). Moreover, the “Maximum-tolerated concentration (MTC)” value by setting is: under setting [1], 1.5%; under setting [2], 1.5%; under setting [3], 1.5%; under setting [4], 1.5%; under setting [5], 2%; under setting [6], 1.5%. The “Maximum-tolerated concentration (MTC)” value runs as follows: under setting [7], more than 2.5%; (exposure for 24 hours beginning at 5 dpf, listed as glycerol) not below 2.5%; under setting [8], more than 2.5%; (exposure for 24 hours beginning at 7 dpf, listed as glycerol) not below 2.5%.
As to `CC(C)O` [Isopropanol, isopropanol], the “Lowest concentration at which an average penetrance of at least 50% was observed for the phenotypic effects” value (24 hours exposure from 1 dpf) turned out to be 1%; the “Lowest concentration at which an average penetrance of at least 50% was observed for the phenotypic effects” value (24 hours exposure from 2 dpf) came out at 2%; the “Lowest concentration at which an average penetrance of at least 50% was observed for the phenotypic effects” value (24 hours exposure from 3 dpf) was found to be 2%; the “Lowest concentration at which an average penetrance of at least 50% was observed for the phenotypic effects” value (24 hours exposure from 4 hpf) amounted to 1.5%; the “Lowest concentration at which an average penetrance of at least 50% was observed for the phenotypic effects” value (24 hours exposure from 7 dpf) is 1%. Besides, the “Maximum-tolerated concentration (MTC)” value reads like this: under setting [1], 0.5%; under setting [2], 1%; under setting [3], 0.5%; under setting [4], 1.5%; under setting [5], 0.5%; under setting [6], 1%. For the same molecule, the “Maximum-tolerated concentration (MTC)” value is less than 0.5% under setting [7] and 0.5% under setting [8]. Also, the “Phenotypic effects above MTC after 24 hours (average penetrance at least 50%)” value is “AP IC” (exposure from 1 dpf), “IC LP” (exposure from 2 dpf), “BC IC IM HJ PE” (exposure from 3 dpf) and “IC LP NB PE” (exposure from 7 dpf).

The values are drawn from article PMC3474771, “Evaluation of 14 Organic Solvents and Carriers for Screening Applications in Zebrafish Embryos and Larvae” (PLoS ONE, 2012).
